According to US20090155209A1, “NOVEL MACROCYCLIC INHIBITORS OF HEPATITIS C VIRUS REPLICATION” (priority 2007, published 2009):

Tests used:
NS3-NS4 [1] = biological target: T1, NS3-NS4 (Hepatitis C virus genotype 1a, UniProt P27958); test: NS3-NS4 activity, IC50 (Example 37, Table 8); assay type: biochemical
NS3-NS4 [2] = biological target: T1, NS3-NS4; test: cell-based; details: EC50, NS3-NS4 activity

T1 sequence (P27958 1027-1657): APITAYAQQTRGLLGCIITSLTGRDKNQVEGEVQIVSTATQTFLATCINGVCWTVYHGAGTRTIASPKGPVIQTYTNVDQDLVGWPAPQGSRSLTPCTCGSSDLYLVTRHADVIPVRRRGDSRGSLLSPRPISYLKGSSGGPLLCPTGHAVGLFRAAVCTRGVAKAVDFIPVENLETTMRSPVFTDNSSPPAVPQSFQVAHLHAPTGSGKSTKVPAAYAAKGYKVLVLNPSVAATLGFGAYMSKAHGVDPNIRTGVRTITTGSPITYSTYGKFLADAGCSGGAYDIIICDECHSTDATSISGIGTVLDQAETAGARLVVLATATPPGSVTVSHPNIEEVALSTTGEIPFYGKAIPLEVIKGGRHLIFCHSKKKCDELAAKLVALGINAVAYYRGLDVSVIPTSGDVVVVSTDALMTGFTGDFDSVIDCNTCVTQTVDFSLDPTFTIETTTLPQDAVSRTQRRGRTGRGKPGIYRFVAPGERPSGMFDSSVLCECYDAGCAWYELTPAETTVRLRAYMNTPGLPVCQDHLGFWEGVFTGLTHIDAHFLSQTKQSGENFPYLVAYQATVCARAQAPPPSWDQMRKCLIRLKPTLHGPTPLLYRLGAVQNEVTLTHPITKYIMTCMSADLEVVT
T1 sequence (P27958 1658-1711): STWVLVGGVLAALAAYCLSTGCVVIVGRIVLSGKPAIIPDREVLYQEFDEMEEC

| Compound | IC50 (NS3-NS4 [1]) | EC50 (NS3-NS4 [2]) |
| --- | --- | --- |
| COCC1(S(=O)(=O)NC(=O)[C@@]23C[C@H]2CCCCCCC[C@H](NC(=O)OC(C)(C)C)C(=O)N2C[C@H](OC(=O)N4Cc5cccc(F)c5C4)C[C@H]2C(=O)N3)CC1 [Compound 652] | < 100 nM | < 100 nM |
| CC(C)C1(S(=O)(=O)NC(=O)[C@@]23C[C@H]2CCCCCCC[C@H](NC(=O)OC(C)(C)C)C(=O)N2C[C@H](OC(=O)N4Cc5cccc(F)c5C4)C[C@H]2C(=O)N3)CC1 [Compound 653] | < 100 nM | < 100 nM |
| CC(C)CC1(S(=O)(=O)NC(=O)[C@@]23C[C@H]2CCCCCCC[C@H](NC(=O)OC(C)(C)C)C(=O)N2C[C@H](OC(=O)N4Cc5cccc(F)c5C4)C[C@H]2C(=O)N3)CC1 [Compound 654] | < 100 nM | < 100 nM |
| CCCS(=O)(=O)NC(=O)[C@@]12C[C@H]1CCCCCCC[C@H](NC(=O)OC(C)(C)C)C(=O)N1C[C@H](OC(=O)N3Cc4cccc(F)c4C3)C[C@H]1C(=O)N2 [Compound 655] | < 100 nM | < 100 nM |
| CC(C)CS(=O)(=O)NC(=O)[C@@]12C[C@H]1CCCCCCC[C@H](NC(=O)OC(C)(C)C)C(=O)N1C[C@H](OC(=O)N3Cc4cccc(F)c4C3)C[C@H]1C(=O)N2 [Compound 656] | < 100 nM | < 100 nM |
| Cc1cccc(ONC(=O)[C@@]23C[C@H]2/C=C\CCCCC[C@H](NC(=O)OC(C)(C)C)C(=O)N2C[C@H](OC(=O)N4Cc5cccc(F)c5C4)C[C@H]2C(=O)N3)c1 [Compound 702] | < 100 nM | 1000 to 10000 nM |
| CC(C)(C)OC(=O)N[C@H]1CCCCC/C=C\[C@@H]2C[C@@]2(C(=O)NOc2cccc(F)c2)NC(=O)[C@@H]2C[C@@H](OC(=O)N3Cc4cccc(F)c4C3)CN2C1=O [Compound 704] | < 100 nM | 1000 to 10000 nM |
| CC(C)(C)OC(=O)N[C@H]1CCCCC/C=C\[C@@H]2C[C@@]2(C(=O)NOc2ccc(Cl)cc2)NC(=O)[C@@H]2C[C@@H](OC(=O)N3Cc4cccc(F)c4C3)CN2C1=O [Compound 707] | < 100 nM | 1000 to 10000 nM |
| COc1cccc(ONC(=O)[C@@]23C[C@H]2/C=C\CCCCC[C@H](NC(=O)OC(C)(C)C)C(=O)N2C[C@H](OC(=O)N4Cc5cccc(F)c5C4)C[C@H]2C(=O)N3)c1 [Compound 708] | < 100 nM | 1000 to 10000 nM |
| CC(C)(C)OC(=O)N[C@H]1CCCCC/C=C\[C@@H]2C[C@@]2(C(=O)NOc2cccc(C(F)(F)F)c2)NC(=O)[C@@H]2C[C@@H](OC(=O)N3Cc4cccc(F)c4C3)CN2C1=O [Compound 709] | < 100 nM | 1000 to 10000 nM |
| CC(C)(C)OC(=O)N[C@H]1CCCCC/C=C\[C@@H]2C[C@@]2(C(=O)NOc2ccc(-c3ccccc3)cc2)NC(=O)[C@@H]2C[C@@H](OC(=O)N3Cc4cccc(F)c4C3)CN2C1=O [Compound 710] | < 100 nM | 1000 to 10000 nM |
| CC(C)(C)OC(=O)N[C@H]1CCCCC/C=C\[C@@H]2C[C@@]2(C(=O)NOc2ccccc2)NC(=O)[C@@H]2C[C@@H](OC(=O)N3Cc4cccc(F)c4C3)CN2C1=O [Compound 711] | < 100 nM | 1000 to 10000 nM |
| Cc1cccc(ONC(=O)[C@@]23C[C@H]2/C=C\CCCCC[C@H](NC(=O)OC(C)(C)C)C(=O)N2C[C@H](OC(=O)N4Cc5cccc(F)c5C4)C[C@H]2C(=O)N3)c1C [Compound 712] | < 100 nM | 1000 to 10000 nM |
| Cc1ccc(C)c(ONC(=O)[C@@]23C[C@H]2/C=C\CCCCC[C@H](NC(=O)OC(C)(C)C)C(=O)N2C[C@H](OC(=O)N4Cc5cccc(F)c5C4)C[C@H]2C(=O)N3)c1 [Compound 713] | < 100 nM | 1000 to 10000 nM |
| Cc1ccc(ONC(=O)[C@@]23C[C@H]2/C=C\CCCCC[C@H](NC(=O)OC(C)(C)C)C(=O)N2C[C@H](OC(=O)N4Cc5cccc(F)c5C4)C[C@H]2C(=O)N3)cc1C [Compound 714] | < 100 nM | 1000 to 10000 nM |
| Cc1cc(C)cc(ONC(=O)[C@@]23C[C@H]2/C=C\CCCCC[C@H](NC(=O)OC(C)(C)C)C(=O)N2C[C@H](OC(=O)N4Cc5cccc(F)c5C4)C[C@H]2C(=O)N3)c1 [Compound 715] | < 100 nM | 1000 to 10000 nM |
| CC(C)ONC(=O)[C@@]12C[C@H]1/C=C\CCCCC[C@H](NC(=O)OC(C)(C)C)C(=O)N1C[C@H](OC(=O)N3Cc4cccc(F)c4C3)C[C@H]1C(=O)N2 [Compound 718] | < 100 nM | < 100 nM |
| CC(C)CONC(=O)[C@@]12C[C@H]1/C=C\CCCCC[C@H](NC(=O)OC(C)(C)C)C(=O)N1C[C@H](OC(=O)N3Cc4cccc(F)c4C3)C[C@H]1C(=O)N2 [Compound 719] | < 100 nM | < 100 nM |
| CC(C)(C)CONC(=O)[C@@]12C[C@H]1/C=C\CCCCC[C@H](NC(=O)OC(C)(C)C)C(=O)N1C[C@H](OC(=O)N3Cc4cccc(F)c4C3)C[C@H]1C(=O)N2 [Compound 720] | < 100 nM | < 100 nM |

| Compound | IC50 (NS3-NS4 [1]) | EC50 (NS3-NS4 [2]) |
| --- | --- | --- |
| COc1cccc(ONC(=O)[C@@]23C[C@H]2CCCCCCC[C@H](NC(=O)OC(C)(C)C)C(=O)N2C[C@H](OC(=O)N4Cc5cccc(F)c5C4)C[C@H]2C(=O)N3)c1 [Compound 801] | < 100 nM | 1000 to 10000 nM |
| Cc1ccc(ONC(=O)[C@@]23C[C@H]2CCCCCCC[C@H](NC(=O)OC(C)(C)C)C(=O)N2C[C@H](OC(=O)N4Cc5cccc(F)c5C4)C[C@H]2C(=O)N3)cc1C [Compound 802] | < 100 nM | 1000 to 10000 nM |
| CC(C)(C)OC(=O)N[C@H]1CCCCCCC[C@@H]2C[C@@]2(C(=O)NOc2ccc(-c3ccccc3)cc2)NC(=O)[C@@H]2C[C@@H](OC(=O)N3Cc4cccc(F)c4C3)CN2C1=O [Compound 803] | < 100 nM | 1000 to 10000 nM |
| Cc1cccc(ONC(=O)[C@@]23C[C@H]2CCCCCCC[C@H](NC(=O)OC(C)(C)C)C(=O)N2C[C@H](OC(=O)N4Cc5cccc(F)c5C4)C[C@H]2C(=O)N3)c1 [Compound 805] | < 100 nM | 1000 to 10000 nM |
| Cc1ccc(C)c(ONC(=O)[C@@]23C[C@H]2CCCCCCC[C@H](NC(=O)OC(C)(C)C)C(=O)N2C[C@H](OC(=O)N4Cc5cccc(F)c5C4)C[C@H]2C(=O)N3)c1 [Compound 806] | < 100 nM | 1000 to 10000 nM |
| Cc1cc(C)cc(ONC(=O)[C@@]23C[C@H]2CCCCCCC[C@H](NC(=O)OC(C)(C)C)C(=O)N2C[C@H](OC(=O)N4Cc5cccc(F)c5C4)C[C@H]2C(=O)N3)c1 [Compound 807] | < 100 nM | 1000 to 10000 nM |
| Cc1ccc(ONC(=O)[C@@]23C[C@H]2CCCCCCC[C@H](NC(=O)OC(C)(C)C)C(=O)N2C[C@H](OC(=O)N4Cc5cccc(F)c5C4)C[C@H]2C(=O)N3)cc1 [Compound 808] | < 100 nM | 1000 to 10000 nM |
| CC(C)(C)OC(=O)N[C@H]1CCCCCCC[C@@H]2C[C@@]2(C(=O)NOc2ccc(Cl)cc2)NC(=O)[C@@H]2C[C@@H](OC(=O)N3Cc4cccc(F)c4C3)CN2C1=O [Compound 809] | < 100 nM | 1000 to 10000 nM |
| CC(C)(C)OC(=O)N[C@H]1CCCCCCC[C@@H]2C[C@@]2(C(=O)NOc2cccc(F)c2)NC(=O)[C@@H]2C[C@@H](OC(=O)N3Cc4cccc(F)c4C3)CN2C1=O [Compound 810] | < 100 nM | 1000 to 10000 nM |
| CC(C)(C)OC(=O)N[C@H]1CCCCCCC[C@@H]2C[C@@]2(C(=O)NOc2ccc(F)cc2)NC(=O)[C@@H]2C[C@@H](OC(=O)N3Cc4cccc(F)c4C3)CN2C1=O [Compound 811] | < 100 nM | 1000 to 10000 nM |
| CC(C)ONC(=O)[C@@]12C[C@H]1CCCCCCC[C@H](NC(=O)OC(C)(C)C)C(=O)N1C[C@H](OC(=O)N3Cc4cccc(F)c4C3)C[C@H]1C(=O)N2 [Compound 812] | < 100 nM | < 100 nM |
| CC(C)(C)OC(=O)N[C@H]1CCCCCCC[C@@H]2C[C@@]2(C(=O)NOCC2CC2)NC(=O)[C@@H]2C[C@@H](OC(=O)N3Cc4cccc(F)c4C3)CN2C1=O [Compound 813] | < 100 nM | < 100 nM |
| CC(C)CONC(=O)[C@@]12C[C@H]1CCCCCCC[C@H](NC(=O)OC(C)(C)C)C(=O)N1C[C@H](OC(=O)N3Cc4cccc(F)c4C3)C[C@H]1C(=O)N2 [Compound 814] | < 100 nM | < 100 nM |
| CC(C)(C)ONC(=O)[C@@]12C[C@H]1CCCCCCC[C@H](NC(=O)OC(C)(C)C)C(=O)N1C[C@H](OC(=O)N3Cc4cccc(F)c4C3)C[C@H]1C(=O)N2 [Compound 815] | < 100 nM | < 100 nM |
| CC(C)(C)OC(=O)N[C@H]1CCCCC[C@@H]2C[C@@H]2[C@@H]2C[C@@]2(C(=O)NS(=O)(=O)C2(C)CC2)NC(=O)[C@@H]2C[C@@H](OC(=O)N3Cc4cccc(F)c4C3)CN2C1=O [Compound 901] | < 100 nM | < 100 nM |
| CC(C)(C)OC(=O)N[C@H]1CCCCC[C@@H]2C[C@@H]2[C@@H]2C[C@@]2(C(=O)NS(=O)(=O)C2CC2)NC(=O)[C@@H]2C[C@@H](OC(=O)N3Cc4cccc(F)c4C3)CN2C1=O [Compound 902] | < 100 nM | < 100 nM |
| CC(C)(C)OC(=O)N[C@H]1CCCCC[C@H]2C[C@H]2[C@@H]2C[C@@]2(C(=O)NS(=O)(=O)C2(C)CC2)NC(=O)[C@@H]2C[C@@H](OC(=O)N3Cc4cccc(F)c4C3)CN2C1=O [Compound 903] | < 100 nM | < 100 nM |
| CC(C)(C)OC(=O)N[C@H]1CCCCC[C@H]2C[C@H]2[C@@H]2C[C@@]2(C(=O)NS(=O)(=O)C2CC2)NC(=O)[C@@H]2C[C@@H](OC(=O)N3Cc4cccc(F)c4C3)CN2C1=O [Compound 904] | < 100 nM | < 100 nM |
